Literature values as cited in patent US9585959B2, “Robust controlled-release formulations” (CAMURUS AB, priority 2011, dated 2017).
*1 amine or outer side, *2 acyl side, *3 side chain or, on linkers, in order; H or OH if unused. Where a SMILES comes first, the peptide text is derived from it. Side-chain parts run from the residue outwards. [ ]: non-standard residue; d: D form. The star is where a group is joined. Ethylenediamine = C(CN[*:2])N[*:1]; Hyp = O=C(O)[C@@H]1C[C@@H](O)CN1; Phg = N[C@H](C(=O)O)c1ccccc1; CO = O=C([*:1])[*:2]; Bn = c1ccc(C*)cc1

How the values were obtained:
[1] = in vivo
[2] = tested on: somatostatin receptor subtypes sstr1,2,3 and sstr5

In the case of “Ala-Gly-Cys-Lys-Asn-Phe-Phe-Trp-Lys-Thr-Phe-Thr-Ser-Cys [SST-14]”, the Biological half-life [1] is listed as 1-3 minutes and the “Affinity of the five SSTRs” value (SSTRs (SSTR1-SSTR5); SSTR1-SSTR5) is listed as “equally high affinity”.
In the case of `C[C@@H](O)[C@@H]1NC(=O)[C@H](CCCCN)NC(=O)[C@@H](Cc2c[nH]c3ccccc23)NC(=O)[C@H](Cc2ccccc2)NC(=O)[C@@H](NC(=O)[C@H](N)Cc2ccccc2)CSSC[C@@H](C(=O)N[C@H](CO)[C@@H](C)O)NC1=O` [Octreotide, D-Phe-Cys-Phe-D-Trp-Lys-Thr-Cys-Thr-ol (2-7 disulphide bridge)], the Selectivity (SSTRs (SSTR1-SSTR5); for SSTR2 and SSTR5) is given as “high selectivity”.
For `NCCCC[C@@H]1NC(=O)[C@@H](Cc2c[nH]c3ccccc23)NC(=O)[C@H](c2ccccc2)NC(=O)[C@@H]2C[C@@H](OC(=O)NCCN)CN2C(=O)[C@H](Cc2ccccc2)NC(=O)[C@H](Cc2ccc(OCc3ccccc3)cc2)NC1=O` [Pasireotide] (cyclo(F[Hyp]([CO-Ethylenediamine])[Phg][dW]KY(Bn))), the Affinity [2] is listed as “high affinity”.
